System: 317291-083-R-J1-PDC complex spheroids, viability
Test: Anticancer human tumor 317291-083-R-J1-PDC patient-derived soft tissue sarcoma cell line growth inhibition [GQUAD]
Conditions: for IC50: curve of first compound; for viability, T/C: stronger effect = lower value
Summary of the method: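 Multi-cell-type spheroids of tumor cells with HUVEC and mesenchymal stem cells, treated with drug combinations. Concentrations descend in half-log steps from near clinical Cmax, or from 10 microM where Cmax is unknown; viability read-out.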

[1] = second compound 0.0316 µM, first compound 0.0316 µM
[2] = second compound 0.0316 µM, first compound 0.1 µM
[3] = second compound 0.0316 µM, first compound 0.316 µM
[4] = second compound 0.0316 µM, first compound 1 µM
[5] = second compound 0.0316 µM, first compound 3.16 µM
[6] = second compound 0.0316 µM, first compound 10 µM
[7] = second compound 0.1 µM, first compound 0.0316 µM
[8] = second compound 0.1 µM, first compound 0.1 µM
[9] = second compound 0.1 µM, first compound 0.316 µM
[10] = second compound 0.1 µM, first compound 1 µM
[11] = second compound 0.1 µM, first compound 3.16 µM
[12] = second compound 0.1 µM, first compound 10 µM
[13] = second compound 0.316 µM, first compound 0.0316 µM
[14] = second compound 0.316 µM, first compound 0.1 µM
[15] = second compound 0.316 µM, first compound 0.316 µM
[16] = second compound 0.316 µM, first compound 1 µM
[17] = second compound 0.316 µM, first compound 3.16 µM
[18] = second compound 0.316 µM, first compound 10 µM
[19] = second compound 1 µM, first compound 0.0316 µM
[20] = second compound 1 µM, first compound 0.1 µM
[21] = second compound 1 µM, first compound 0.316 µM
[22] = second compound 1 µM, first compound 1 µM
[23] = second compound 1 µM, first compound 3.16 µM
[24] = second compound 1 µM, first compound 10 µM
[25] = second compound 3.16 µM, first compound 0.0316 µM
[26] = second compound 3.16 µM, first compound 0.1 µM
[27] = second compound 3.16 µM, first compound 0.316 µM
[28] = second compound 3.16 µM, first compound 1 µM
[29] = second compound 3.16 µM, first compound 3.16 µM
[30] = second compound 3.16 µM, first compound 10 µM
[31] = second compound 10 µM, first compound 0.0316 µM
[32] = second compound 10 µM, first compound 0.1 µM
[33] = second compound 10 µM, first compound 0.316 µM
[34] = second compound 10 µM, first compound 1 µM
[35] = second compound 10 µM, first compound 3.16 µM
[36] = second compound 10 µM, first compound 10 µM
[37] = second compound 0.0316 µM, first compound 0.000999 µM
[38] = second compound 0.0316 µM, first compound 0.00316 µM
[39] = second compound 0.0316 µM, first compound 0.00999 µM
[40] = second compound 0.0316 µM, first compound 0.0999 µM
[41] = second compound 0.1 µM, first compound 0.000999 µM
[42] = second compound 0.1 µM, first compound 0.00316 µM
[43] = second compound 0.1 µM, first compound 0.00999 µM
[44] = second compound 0.1 µM, first compound 0.0999 µM
[45] = second compound 0.316 µM, first compound 0.000999 µM
[46] = second compound 0.316 µM, first compound 0.00316 µM
[47] = second compound 0.316 µM, first compound 0.00999 µM
[48] = second compound 0.316 µM, first compound 0.0999 µM
[49] = second compound 1 µM, first compound 0.000999 µM
[50] = second compound 1 µM, first compound 0.00316 µM
[51] = second compound 1 µM, first compound 0.00999 µM
[52] = second compound 1 µM, first compound 0.0999 µM
[53] = second compound 3.16 µM, first compound 0.000999 µM
[54] = second compound 3.16 µM, first compound 0.00316 µM
[55] = second compound 3.16 µM, first compound 0.00999 µM
[56] = second compound 3.16 µM, first compound 0.0999 µM
[57] = second compound 10 µM, first compound 0.000999 µM
[58] = second compound 10 µM, first compound 0.00316 µM
[59] = second compound 10 µM, first compound 0.00999 µM
[60] = second compound 10 µM, first compound 0.0999 µM
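Further: spheroids exposed to compounds for one week before readout.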
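Wherever viability, T/C is given: percent viability relative to DMSO vehicle wells taken as 100%.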

O=C(NO)c1cnc(N2CCN(S(=O)(=O)c3ccc4ccccc4c3)CC2)nc1 + Cc1[nH]c2ccc(F)cc2c1-c1nc2c3cccnc3c3ncccc3c2[nH]1
IC50 (second compound 0.0316 µM): 153 nM | IC50 (second compound 0.1 µM): 211 nM | IC50 (second compound 0.316 µM): 113 nM | IC50 (second compound 1 µM): 60.2 nM | IC50 (second compound 3.16 µM): < 31.6 nM | IC50 (second compound 10 µM): < 31.6 nM | viability, T/C [1]: 99.5% | viability, T/C [2]: 71.4% | viability, T/C [3]: 13.9% | viability, T/C [4]: 0.16% | viability, T/C [5]: 0.07% | viability, T/C [6]: 0.9% | viability, T/C [7]: 117% | viability, T/C [8]: 102% | viability, T/C [9]: 22.1% | viability, T/C [10]: 0.09% | viability, T/C [11]: 0.03% | viability, T/C [12]: 0.45% | viability, T/C [13]: 66.5% | viability, T/C [14]: 55.2% | viability, T/C [15]: 6.53% | viability, T/C [16]: 0.09% | viability, T/C [17]: 0.04% | viability, T/C [18]: 0.16% | viability, T/C [19]: 60.6% | viability, T/C [20]: 41.6% | viability, T/C [21]: 10.5% | viability, T/C [22]: 0.06% | viability, T/C [23]: 0.09% | viability, T/C [24]: 0.07% | viability, T/C [25]: 42.7% | viability, T/C [26]: 19.4% | viability, T/C [27]: 3.52% | viability, T/C [28]: 0.44% | viability, T/C [29]: 0.18% | viability, T/C [30]: 0.72% | viability, T/C [31]: 42.9% | viability, T/C [32]: 35.3% | viability, T/C [33]: 4.65% | viability, T/C [34]: 0.13% | viability, T/C [35]: 0.22% | viability, T/C [36]: 0.17%

COc1cc(C2c3cc4c(cc3C(OC3OC5COC(C)OC5C(O)C3O)C3COC(=O)C23)OCO4)cc(OC)c1O (stereo not drawn) + CN(C)c1ccc(Nc2c3ccc(NC(=O)CCN4CCCC4)cc3nc3cc(NC(=O)CCN4CCCC4)ccc23)cc1
IC50 (second compound 0.0316 µM): 310 nM | IC50 (second compound 0.1 µM): 357 nM | IC50 (second compound 0.316 µM): 283 nM | IC50 (second compound 1 µM): 55.4 nM | IC50 (second compound 3.16 µM): < 31.6 nM | IC50 (second compound 10 µM): < 31.6 nM | viability, T/C [1]: 89.9% | viability, T/C [2]: 82.2% | viability, T/C [3]: 48.9% | viability, T/C [4]: 26.8% | viability, T/C [5]: 19.4% | viability, T/C [6]: 21.7% | viability, T/C [7]: 92.1% | viability, T/C [8]: 86% | viability, T/C [9]: 50.4% | viability, T/C [10]: 29.6% | viability, T/C [11]: 15.7% | viability, T/C [12]: 18.1% | viability, T/C [13]: 79.8% | viability, T/C [14]: 71.9% | viability, T/C [15]: 46.8% | viability, T/C [16]: 26.1% | viability, T/C [17]: 20.1% | viability, T/C [18]: 12.3% | viability, T/C [19]: 62.1% | viability, T/C [20]: 37.9% | viability, T/C [21]: 20.7% | viability, T/C [22]: 15.7% | viability, T/C [23]: 13.5% | viability, T/C [24]: 7.56% | viability, T/C [25]: 39% | viability, T/C [26]: 12.5% | viability, T/C [27]: 21.5% | viability, T/C [28]: 9.89% | viability, T/C [29]: 8.39% | viability, T/C [30]: 6.12% | viability, T/C [31]: 12.7% | viability, T/C [32]: 8.34% | viability, T/C [33]: 4.76% | viability, T/C [34]: 7.68% | viability, T/C [35]: 5.05% | viability, T/C [36]: 0.99%

Cn1ncnc1[C@H]1c2n[nH]c(=O)c3cc(F)cc(c23)N[C@@H]1c1ccc(F)cc1 + Cc1cnc(CNC(=O)c2c(=O)c3ccc(N4CCCN(C)CC4)nc3n3c2sc2ccccc23)cn1
IC50 (second compound 0.0316 µM): 246 nM | IC50 (second compound 0.1 µM): 24.2 nM | IC50 (second compound 0.316 µM): < 0.999 nM | IC50 (second compound 1 µM): < 0.999 nM | IC50 (second compound 3.16 µM): < 0.999 nM | IC50 (second compound 10 µM): < 0.999 nM | viability, T/C [37]: 88.6% | viability, T/C [38]: 106% | viability, T/C [39]: 75.6% | viability, T/C [1]: 74% | viability, T/C [40]: 59.8% | viability, T/C [3]: 46.8% | viability, T/C [41]: 73.8% | viability, T/C [42]: 74.7% | viability, T/C [43]: 49.7% | viability, T/C [7]: 50.4% | viability, T/C [44]: 37.9% | viability, T/C [9]: 25.3% | viability, T/C [45]: 46.1% | viability, T/C [46]: 42.7% | viability, T/C [47]: 41.2% | viability, T/C [13]: 25.5% | viability, T/C [48]: 36.7% | viability, T/C [15]: 24.2% | viability, T/C [49]: 32.2% | viability, T/C [50]: 35.5% | viability, T/C [51]: 31.4% | viability, T/C [19]: 21.1% | viability, T/C [52]: 24.3% | viability, T/C [21]: 23.9% | viability, T/C [53]: 17.3% | viability, T/C [54]: 13.4% | viability, T/C [55]: 16.9% | viability, T/C [25]: 17.2% | viability, T/C [56]: 20.3% | viability, T/C [27]: 12.7% | viability, T/C [57]: 41% | viability, T/C [58]: 35.4% | viability, T/C [59]: 25.4% | viability, T/C [31]: 34.6% | viability, T/C [60]: 29.9% | viability, T/C [33]: 25.4%

Cc1[nH]c2ccccc2c1CCNCc1ccc(/C=C/C(=O)NO)cc1 + Cc1cnc(CNC(=O)c2c(=O)c3ccc(N4CCCN(C)CC4)nc3n3c2sc2ccccc23)cn1
IC50 (second compound 0.0316 µM): 54.2 nM | IC50 (second compound 0.1 µM): 20.1 nM | IC50 (second compound 0.316 µM): 1.57 nM | IC50 (second compound 1 µM): < 0.999 nM | IC50 (second compound 3.16 µM): < 0.999 nM | IC50 (second compound 10 µM): < 0.999 nM | viability, T/C [37]: 101% | viability, T/C [38]: 80.9% | viability, T/C [39]: 103% | viability, T/C [1]: 80% | viability, T/C [40]: 15.5% | viability, T/C [3]: 0.98% | viability, T/C [41]: 67.3% | viability, T/C [42]: 54.2% | viability, T/C [43]: 55.2% | viability, T/C [7]: 46.1% | viability, T/C [44]: 12.2% | viability, T/C [9]: 0.49% | viability, T/C [45]: 59% | viability, T/C [46]: 35.4% | viability, T/C [47]: 31.4% | viability, T/C [13]: 25.5% | viability, T/C [48]: 14.5% | viability, T/C [15]: 0.46% | viability, T/C [49]: 34.4% | viability, T/C [50]: 20.5% | viability, T/C [51]: 34.5% | viability, T/C [19]: 26% | viability, T/C [52]: 7.38% | viability, T/C [21]: 0.1% | viability, T/C [53]: 27.3% | viability, T/C [54]: 41.7% | viability, T/C [55]: 50% | viability, T/C [25]: 0.4% | viability, T/C [56]: 0.16% | viability, T/C [27]: 0.22% | viability, T/C [57]: 3.89% | viability, T/C [58]: 11.2% | viability, T/C [59]: 0.33% | viability, T/C [31]: 1.81% | viability, T/C [60]: 0.47% | viability, T/C [33]: 0.44%
